Peptide text beside a SMILES is read from it.
Tests used:
mTOR = mTOR localization relative to LAMP2-positive lysosomes (HC and confocal microscopy); format: cell-based
Method: (A) Dose-response analysis of mTOR activity in HEK293T cells treated with glycyl-L-phenylalanine 2-naphththylamide (GPN) in full medium for 1 h. mTOR activity was monitored by inununoblotting analysis of S6K1 (T389) and ULK1 (S757) phosphorylation (phosphorylated S6K (T389) and ULK1 (S757) relative to total S6K and ULK1, respectively). (B) Analysis of mTOR activity (as in A) after GPN washout. HEK293T cells were treated with 100 μM GPN for 1 h followed by 1 h washout in full medium. Data, means±SEM (n=3), **p<0.01, ANOVA. (C) Analysis of mTOR activity (as in A) in HEK293T cells treated with increasing doses of silica in full medium for 1 h. (D) HEK293T cells were treated with lysosomal damaging agents (LLOMe, Leu-Leu-OMe) for 1 h in full medium and status of acidified organelles assessed by quantifying LysoTracker Red DND-99 puncta using automated high-content imaging and analysis (HC). None-treated cells were as control (Ctrl). White masks, algorithm defined cell boundaries (primary objects); yellow masks, computer-identified LysoTracker Red puncta (target objects). Data, means±SEM, n≥3 independent experiments (500 primary objects counted per well; ≥5 wells/sample per each experiment), **p<0.01, ANOVA. (E) Analysis of mTOR activity in primary human macrophages treated with GPN. Human peripheral blood monocyte derived macrophages were treated with 100 μM GPN in full medium or starved in EBSS for 1 h, and mTOR activity measured as in A. None-treated cells were as control (Ctrl). (F) Quantification by HC of overlaps between mTOR and LAMP2 (representative images shown in FIG. S1D) in HeLa cells treated with lysosomal damaging agents for 1 h in full medium. Data, means±SEM, n≥3 independent experiments (500 primary objects counted per well; ≥5 wells/sample per each experiment) **p<0.01, ANOVA. (G) Immunofluorescence confocal microscopy visualization of mTOR localization relative to LAMP2-positive lysosomes. […] (H) Analysis of TFEB nuclear translocation in HeLa cells treated with 100 μM GPN in full medium for 1 h, and the nuclear translocation of TFEB was measured by HC (Nuclei, Hoechst 33342, blue pseudocolor; TFEB red fluorescence, Alexa-568). […] White masks, computer algorithm-defined cell boundaries (primary objects); pink masks, computer-identified nuclear TFEB based on the average intensity of Alexa-568 fluorescence. Data, means±SEM, n≥3 independent experiments (500 primary objects counted per well; ≥5 wells/sample per each experiment), **p<0.01, ANOVA. (I) HeLa cells were treated as indicated in full medium for 1 h, and LC3 puncta were quantified by HC. […] Data, means±SEM, n≥3 independent experiments (500 primary objects counted per well; ≥5 wells/sample per each experiment), **p<0.01, ANOVA. […]

[1] = tested on: bone marrow-derived macrophages (BMMs); experiment: LysoTracker Red DND-99 staining in bone marrow-derived macrophages (BMMs); format: cell-based, murine; conditions: GPN 400 μM or LLOMe, 1 h

Structure (SMILES): NCC(=O)N[C@@H](Cc1ccccc1)C(=O)Nc1ccc2ccccc2c1 [GPN, glycyl-L-phenylalanine 2-naphththylamide] (HELM PEPTIDE1{G.F.[c1ccc2cc(N[*:1])ccc2c1]}$$$$V2.0)
- mTOR localization in cells expressing RagBQ99L (mTOR; HEK293T stably expressing RagBQ99L, 100 μM GPN 1 h): remained on lysosomes
- mTOR localization (lysosomes vs cytosol, overlap with LAMP2) (mTOR; HeLa cells, 1 h full medium): translocated from lysosomes to the cytosol
- LysoTracker Red DND-99 staining in BMMs (lysosomal damage) [1]: reduced LysoTracker Red DND-99 staining
